Bridge positions count the residues as written; N and C are the ends. Square brackets hold non-standard residues; d marks the D form. Peptide text beside a SMILES is read from it. * marks the point of attachment. Tyr(3,5-F2) = N[C@@H](Cc1cc(F)c(O)c(F)c1)C(=O)O; Phe(4-COOH) = N[C@@H](Cc1ccc(C(=O)O)cc1)C(=O)O; Tyr(3-Cl) = N[C@@H](Cc1ccc(O)c(Cl)c1)C(=O)O; Bip = N[C@@H](Cc1ccc(-c2ccccc2)cc1)C(=O)O; Phe(3-CN) = N#Cc1cccc(C[C@H](N)C(=O)O)c1; Phe(3-F) = N[C@@H](Cc1cccc(F)c1)C(=O)O; Phe(3-Me) = Cc1cccc(C[C@H](N)C(=O)O)c1; Phe(4-F) = N[C@@H](Cc1ccc(F)cc1)C(=O)O; Phe(4-Me) = Cc1ccc(C[C@H](N)C(=O)O)cc1; 3Pal = N[C@@H](Cc1cccnc1)C(=O)O; 4Pal = N[C@@H](Cc1ccncc1)C(=O)O; Cha = N[C@@H](CC1CCCCC1)C(=O)O; Carboxymethyl = O=C(O)C*; Orn = NCCC[C@H](N)C(=O)O; Aun = NCCCCCCCCCCC(=O)O; Dab = NCC[C@H](N)C(=O)O; Dap = NC[C@H](N)C(=O)O; AEEA = NCCOCCOCC(=O)O

The target in the assay is T1, PD-1/PD-L1 interaction (PE-labeled human PD-L1-Ig binding to Jurkat cell line over-expressing human PD-1) (Homo sapiens, UniProt Q15116).
T1 construct: expressed in transfected cells; host or cells: Jurkat
T1 sequence (Q15116 25-288): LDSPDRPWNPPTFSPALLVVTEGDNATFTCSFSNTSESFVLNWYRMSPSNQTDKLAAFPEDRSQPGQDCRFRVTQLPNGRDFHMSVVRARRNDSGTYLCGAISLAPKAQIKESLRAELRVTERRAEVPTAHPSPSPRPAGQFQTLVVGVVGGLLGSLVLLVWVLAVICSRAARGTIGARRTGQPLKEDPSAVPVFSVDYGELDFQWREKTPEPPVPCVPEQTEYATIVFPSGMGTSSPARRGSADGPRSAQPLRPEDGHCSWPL
The assay can be described thus: Jurkat-PD-1 Cell Binding High-Content Screening Assay (CBA). It counts as cell-based. The note with it: Jurkat cell line over-expressing human PD-1; PE-labeled PD-L1-Ig 20 nM final; read-out: Jurkat hPD1-PDL1 IC50. The method in brief:
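Binding of fluorescent PD-L1-Ig (20 nM final) to Jurkat-PD-1 cells was measured by automated imaging after 1 h, following a 2 h compound pre-treatment at 37° C.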
As usually defined, the IC50 is the concentration at which inhibition is half-maximal. `Cc1cccc(C[C@@H]2NC(=O)[C@H](CC(=O)O)NC(=O)[C@H](Cc3ccc(OCC(=O)O)cc3)NC(=O)[C@H](CN)NC(=O)CSC[C@@H](C(=O)N[C@@H](CCN)C(=O)NCCOCCOCC(=O)NCCCCCCCCCCC(=O)O)NC(=O)[C@H](CCCN)NC(=O)[C@H](C(C)C)NC(=O)[C@H](CC3CCCCC3)NC(=O)[C@H](CCN)NC(=O)[C@@H](CC(C)C)NC(=O)[C@H](CCCN)NC(=O)[C@H](Cc3ccc(F)cc3)NC(=O)[C@H](Cc3ccc(-c4ccccc4)cc3)NC(=O)[C@H](Cc3ccc(O)cc3)NC2=O)c1` [Compound 2049] ({CH2CO}-[Dap]Y(Carboxymethyl)D[Phe(3-Me)]Y[Bip][Phe(4-F)][Orn][dL][Dab][Cha]V[Orn]C[Dab][AEEA][Aun]-OH; thioether N-14): the IC50 worked out at 16.9 nM.

As to `Cc1cccc(C[C@@H]2NC(=O)[C@H](CC(=O)O)NC(=O)[C@H](Cc3ccc(OCC(=O)O)cc3)NC(=O)[C@H](CN)NC(=O)CSC[C@@H](C(=O)N[C@@H](CCN)C(=O)NCCOCCOCC(=O)NCCCCCCCCCCC(=O)O)NC(=O)[C@H](CCCN)NC(=O)[C@H](C(C)C)NC(=O)[C@H](CC3CCCCC3)NC(=O)[C@H](CCN)NC(=O)[C@@H](CC(C)C)NC(=O)[C@H](CCCN)NC(=O)[C@H](Cc3cccc(C#N)c3)NC(=O)[C@H](Cc3ccc(-c4ccccc4)cc3)NC(=O)[C@H](Cc3ccc(O)cc3)NC2=O)c1` [Compound 2051] ({CH2CO}-[Dap]Y(Carboxymethyl)D[Phe(3-Me)]Y[Bip][Phe(3-CN)][Orn][dL][Dab][Cha]V[Orn]C[Dab][AEEA][Aun]-OH; thioether N-14), the IC50 was 32.6 nM.

As for `Cc1cccc(C[C@@H]2NC(=O)[C@H](CC(=O)O)NC(=O)[C@H](Cc3ccc(OCC(=O)O)cc3)NC(=O)[C@H](CN)NC(=O)CSC[C@@H](C(=O)N[C@@H](CCN)C(=O)NCCOCCOCC(=O)NCCCCCCCCCCC(=O)O)NC(=O)[C@H](CCCN)NC(=O)[C@H](C(C)C)NC(=O)[C@H](CC3CCCCC3)NC(=O)[C@H](CCN)NC(=O)[C@@H](CC(C)C)NC(=O)[C@H](CCCN)NC(=O)[C@H](Cc3cccc(F)c3)NC(=O)[C@H](Cc3ccc(-c4ccccc4)cc3)NC(=O)[C@H](Cc3ccc(O)cc3)NC2=O)c1` [Compound 2052] ({CH2CO}-[Dap]Y(Carboxymethyl)D[Phe(3-Me)]Y[Bip][Phe(3-F)][Orn][dL][Dab][Cha]V[Orn]C[Dab][AEEA][Aun]-OH; thioether N-14), the IC50 was found to be 14.7 nM.

`Cc1cccc(C[C@@H]2NC(=O)[C@H](CC(=O)O)NC(=O)[C@H](Cc3ccc(OCC(=O)O)cc3)NC(=O)[C@H](CN)NC(=O)CSC[C@@H](C(=O)N[C@@H](CCN)C(=O)NCCOCCOCC(=O)NCCCCCCCCCCC(=O)O)NC(=O)[C@H](CCCN)NC(=O)[C@H](C(C)C)NC(=O)[C@H](CC3CCCCC3)NC(=O)[C@H](CCN)NC(=O)[C@@H](CC(C)C)NC(=O)[C@H](CCCN)NC(=O)[C@H](Cc3ccncc3)NC(=O)[C@H](Cc3ccc(-c4ccccc4)cc3)NC(=O)[C@H](Cc3ccc(O)cc3)NC2=O)c1` [Compound 2053] ({CH2CO}-[Dap]Y(Carboxymethyl)D[Phe(3-Me)]Y[Bip][4Pal][Orn][dL][Dab][Cha]V[Orn]C[Dab][AEEA][Aun]-OH; thioether N-14): the IC50 worked out at 6.9 nM.

Regarding `Cc1ccc(C[C@@H]2NC(=O)[C@H](Cc3ccc(-c4ccccc4)cc3)NC(=O)[C@H](Cc3ccc(O)cc3)NC(=O)[C@H](Cc3cccc(C)c3)NC(=O)[C@H](CC(=O)O)NC(=O)[C@H](Cc3ccc(OCC(=O)O)cc3)NC(=O)[C@H](CN)NC(=O)CSC[C@@H](C(=O)N[C@@H](CCN)C(=O)NCCOCCOCC(=O)NCCCCCCCCCCC(=O)O)NC(=O)[C@H](CCCN)NC(=O)[C@H](C(C)C)NC(=O)[C@H](CC3CCCCC3)NC(=O)[C@H](CCN)NC(=O)[C@@H](CC(C)C)NC(=O)[C@H](CCCN)NC2=O)cc1` [Compound 2054] ({CH2CO}-[Dap]Y(Carboxymethyl)D[Phe(3-Me)]Y[Bip][Phe(4-Me)][Orn][dL][Dab][Cha]V[Orn]C[Dab][AEEA][Aun]-OH; thioether N-14), the IC50 was 12.9 nM.

Consider `Cc1cccc(C[C@@H]2NC(=O)[C@H](CC(=O)O)NC(=O)[C@H](Cc3ccc(OCC(=O)O)cc3)NC(=O)[C@H](CN)NC(=O)CSC[C@@H](C(=O)N[C@@H](CCN)C(=O)NCCOCCOCC(=O)NCCCCCCCCCCC(=O)O)NC(=O)[C@H](CCCN)NC(=O)[C@H](C(C)C)NC(=O)[C@H](CC3CCCCC3)NC(=O)[C@H](CCN)NC(=O)[C@@H](CC(C)C)NC(=O)[C@H](CCCN)NC(=O)[C@H](Cc3cccnc3)NC(=O)[C@H](Cc3ccc(-c4ccccc4)cc3)NC(=O)[C@H](Cc3ccc(O)cc3)NC2=O)c1` [Compound 2055] ({CH2CO}-[Dap]Y(Carboxymethyl)D[Phe(3-Me)]Y[Bip][3Pal][Orn][dL][Dab][Cha]V[Orn]C[Dab][AEEA][Aun]-OH; thioether N-14), for which the IC50 was determined as 7.9 nM.

Consider `COc1ccc(C[C@@H]2NC(=O)[C@H](Cc3ccc(-c4ccccc4)cc3)NC(=O)[C@H](Cc3ccc(O)cc3)NC(=O)[C@H](Cc3cccc(C)c3)NC(=O)[C@H](CC(=O)O)NC(=O)[C@H](Cc3ccc(OCC(=O)O)cc3)NC(=O)[C@H](CN)NC(=O)CSC[C@@H](C(=O)N[C@@H](CCN)C(=O)NCCOCCOCC(=O)NCCCCCCCCCCC(=O)O)NC(=O)[C@H](CCCN)NC(=O)[C@H](C(C)C)NC(=O)[C@H](CC3CCCCC3)NC(=O)[C@H](CCN)NC(=O)[C@@H](CC(C)C)NC(=O)[C@H](CCCN)NC2=O)cc1` [Compound 2056] ({CH2CO}-[Dap]Y(Carboxymethyl)D[Phe(3-Me)]Y[Bip]Y(Me)[Orn][dL][Dab][Cha]V[Orn]C[Dab][AEEA][Aun]-OH; thioether N-14), for which the IC50 amounted to 12.6 nM.

As for `Cc1cccc(C[C@@H]2NC(=O)[C@H](CC(=O)O)NC(=O)[C@H](Cc3ccc(OCC(=O)O)cc3)NC(=O)[C@H](CN)NC(=O)CSC[C@@H](C(=O)N[C@@H](CCN)C(=O)NCCOCCOCC(=O)NCCCCCCCCCCC(=O)O)NC(=O)[C@H](CCCN)NC(=O)[C@H](C(C)C)NC(=O)[C@H](CC3CCCCC3)NC(=O)[C@H](CCN)NC(=O)[C@@H](CC(C)C)NC(=O)[C@H](CCCN)NC(=O)[C@H](Cc3ccc(O)c(Cl)c3)NC(=O)[C@H](Cc3ccc(-c4ccccc4)cc3)NC(=O)[C@H](Cc3ccc(O)cc3)NC2=O)c1` [Compound 2057] ({CH2CO}-[Dap]Y(Carboxymethyl)D[Phe(3-Me)]Y[Bip][Tyr(3-Cl)][Orn][dL][Dab][Cha]V[Orn]C[Dab][AEEA][Aun]-OH; thioether N-14), the IC50 is 8 nM.

Take `Cc1cccc(C[C@@H]2NC(=O)[C@H](CC(=O)O)NC(=O)[C@H](Cc3ccc(OCC(=O)O)cc3)NC(=O)[C@H](CN)NC(=O)CSC[C@@H](C(=O)N[C@@H](CCN)C(=O)NCCOCCOCC(=O)NCCCCCCCCCCC(=O)O)NC(=O)[C@H](CCCN)NC(=O)[C@H](C(C)C)NC(=O)[C@H](CC3CCCCC3)NC(=O)[C@H](CCN)NC(=O)[C@@H](CC(C)C)NC(=O)[C@H](CCCN)NC(=O)[C@H](Cc3cc(F)c(O)c(F)c3)NC(=O)[C@H](Cc3ccc(-c4ccccc4)cc3)NC(=O)[C@H](Cc3ccc(O)cc3)NC2=O)c1` [Compound 2058] ({CH2CO}-[Dap]Y(Carboxymethyl)D[Phe(3-Me)]Y[Bip][Tyr(3,5-F2)][Orn][dL][Dab][Cha]V[Orn]C[Dab][AEEA][Aun]-OH; thioether N-14): the IC50 was found to be 4.7 nM.

As to `Cc1cccc(C[C@@H]2NC(=O)[C@H](CC(=O)O)NC(=O)[C@H](Cc3ccc(OCC(=O)O)cc3)NC(=O)[C@H](CN)NC(=O)CSC[C@@H](C(=O)N[C@@H](CCN)C(=O)NCCOCCOCC(=O)NCCCCCCCCCCC(=O)O)NC(=O)[C@H](CCCN)NC(=O)[C@H](C(C)C)NC(=O)[C@H](CC3CCCCC3)NC(=O)[C@H](CCN)NC(=O)[C@@H](CC(C)C)NC(=O)[C@H](CCCN)NC(=O)[C@H](Cc3ccc(O)cc3)NC(=O)[C@H](Cc3ccc(-c4ccccc4)cc3)NC(=O)[C@H](Cc3ccc(OCC(=O)O)cc3)NC2=O)c1` [Compound 2059] ({CH2CO}-[Dap]Y(Carboxymethyl)D[Phe(3-Me)]Y(Carboxymethyl)[Bip]Y[Orn][dL][Dab][Cha]V[Orn]C[Dab][AEEA][Aun]-OH; thioether N-14), the IC50 was 4 nM.

Take `Cc1cccc(C[C@@H]2NC(=O)[C@H](CC(=O)O)NC(=O)[C@H](Cc3ccc(OCC(=O)O)cc3)NC(=O)[C@H](CN)NC(=O)CSC[C@@H](C(=O)N[C@@H](CCN)C(=O)NCCOCCOCC(=O)NCCCCCCCCCCC(=O)O)NC(=O)[C@H](CCCN)NC(=O)[C@H](C(C)C)NC(=O)[C@H](CC3CCCCC3)NC(=O)[C@H](CCN)NC(=O)[C@@H](CC(C)C)NC(=O)[C@H](CCCN)NC(=O)[C@H](Cc3ccc(O)cc3)NC(=O)[C@H](Cc3ccc(-c4ccccc4)cc3)NC(=O)[C@H](Cc3ccc(C(=O)O)cc3)NC2=O)c1` [Compound 2060] ({CH2CO}-[Dap]Y(Carboxymethyl)D[Phe(3-Me)][Phe(4-COOH)][Bip]Y[Orn][dL][Dab][Cha]V[Orn]C[Dab][AEEA][Aun]-OH; thioether N-14): the IC50 worked out at 4.3 nM.

Regarding `Cc1cccc(C[C@@H]2NC(=O)[C@H](CC(=O)O)NC(=O)[C@H](Cc3ccc(OCC(=O)O)cc3)NC(=O)[C@H](CN)NC(=O)CSC[C@@H](C(=O)N[C@@H](CCN)C(=O)NCCOCCOCC(=O)NCCCCCCCCCCC(=O)O)NC(=O)[C@H](CCCN)NC(=O)[C@H](C(C)C)NC(=O)[C@H](CC3CCCCC3)NC(=O)[C@H](CCN)NC(=O)[C@@H](CC(C)C)NC(=O)[C@H](CCCN)NC(=O)[C@H](Cc3ccc(OCC(=O)O)cc3)NC(=O)[C@H](Cc3ccc(-c4ccccc4)cc3)NC(=O)[C@H](C(C)C)NC2=O)c1` [Compound 2061] ({CH2CO}-[Dap]Y(Carboxymethyl)D[Phe(3-Me)]V[Bip]Y(Carboxymethyl)[Orn][dL][Dab][Cha]V[Orn]C[Dab][AEEA][Aun]-OH; thioether N-14), the IC50 was determined as 3.9 nM.

(Values after patent US20260022142A1, “MACROCYCLIC IMMUNOMODULATORS” (Bristol-Myers Squibb Company, priority 2022, published 2026).)
